# Data: PMC11431963 (International Journal of Molecular Sciences, 2024)
# Legend:
# murine Abcg2 = target: T1, murine Abcg2 (Mus musculus, UniProt Q7TMS5); experiment: Transepithelial transport assay in MDCK-II cells transduced with murine Abcg2; format: in vitro ADME
# T1 sequence (Q7TMS5 1-657): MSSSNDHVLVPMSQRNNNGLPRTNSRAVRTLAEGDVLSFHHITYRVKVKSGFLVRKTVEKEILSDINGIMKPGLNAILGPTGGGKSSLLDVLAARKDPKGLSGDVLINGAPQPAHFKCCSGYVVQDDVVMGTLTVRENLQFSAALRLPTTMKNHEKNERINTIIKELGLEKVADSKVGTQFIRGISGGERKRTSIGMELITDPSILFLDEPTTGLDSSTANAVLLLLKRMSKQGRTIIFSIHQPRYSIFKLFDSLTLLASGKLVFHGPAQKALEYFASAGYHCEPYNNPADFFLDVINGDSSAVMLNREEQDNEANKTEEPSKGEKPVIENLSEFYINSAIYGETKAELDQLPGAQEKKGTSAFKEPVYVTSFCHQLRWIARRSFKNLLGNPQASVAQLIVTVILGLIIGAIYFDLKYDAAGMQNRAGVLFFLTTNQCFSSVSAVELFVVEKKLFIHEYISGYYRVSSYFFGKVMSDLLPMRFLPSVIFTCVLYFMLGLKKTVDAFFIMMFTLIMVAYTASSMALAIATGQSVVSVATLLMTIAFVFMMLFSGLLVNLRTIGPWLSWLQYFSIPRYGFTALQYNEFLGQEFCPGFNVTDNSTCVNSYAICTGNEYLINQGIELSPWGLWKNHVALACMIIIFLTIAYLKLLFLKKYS
# Experimental: (§1) For in vitro assays, the polarized cell line Madin-Darby canine kidney (MDCK-II) and their murine Abcg2 and human ABCG2 transduced subclones, which were previously generated and provided by A.H. Schinkel from the Netherlands Cancer Institute (Amsterdam, The Netherlands), were used.
# (§2) Transcellular transport assays were performed as previously described, with minor modifications (Figure S1). Transduced MDCK-II cells were seeded as a monolayer on microporous membrane filters (3.0 μm pore size, 24 mm diameter; Transwell® 3414; Costar, Corning, NY, USA) at a density of 1.0 x 10^6 cells/well. Cells were grown for three days with daily medium replacement.
# (§3) During the experiment, quality controls were performed in terms of monolayer tightness at the beginning and end of the assay using Millicell®ERS (Millipore, Burlington, MA, USA), and monolayer confluence was tested at the end of the experiment by means of Lucifer Yellow permeability. Transport proficiency was simultaneously checked by testing a typical ABCG2 substrate (danofloxacin 10 μM) (Table S1).
# (§4) (to verify that the potential transport was specifically due to ABCG2). […] This volume was replaced with fresh Opti-MEM medium. Finally, at t = 4 h 600 µL aliquots were taken from the apical and basal compartments of each well. All samples were stored at −20 °C until being analyzed by high-performance liquid chromatography (HPLC), as described below.
# (§5) The relative efflux transport ratio was calculated as the basal to apical directed transport percentage divided by the apical to basal directed transport percentage at 4 h.
# (§6) Tissue samples were homogenized with a mixture of 50% water:50% methanol with 0.5% HCl; 1 mL of solution per 0.1 g of organ was used. To each 100 µL of plasma, milk or tissue homogenate, 10 µL of an albendazole-2-aminosulfone solution (100 µg/mL) was added as an internal standard and 400 µL of acetonitrile was also added in order to precipitate proteins. After 10 min of being horizontally vortexed, samples were centrifuged at 10,500× g for 10 min at 4 °C. Supernatants were evaporated to dryness at 40 °C under a stream of nitrogen. Samples were reconstituted in 100 µL of cold methanol and injected into the HPLC system. However, samples for in vitro assays were directly injected into the HPLC system.
# (§7) The chromatographic system used for sample analysis consisted of a Waters 2695 separation module and a Waters 2998 UV photodiode array detector. Separation of samples was performed on an analytical reversed-phase column (5 µm particle size, 250 × 4.6 mm, EVO C18 100 Å, Phenomenex®, Torrance, CA, USA). The mobile phase used for in vitro samples was trifluoroacetic acid 0.04%:methanol (40:60), whereas for in vivo samples, it was ammonium acetate 25 mM (pH 5):acetonitrile (85:15). In both cases, the flow rate was set to 1.00 mL/min and UV absorbance was measured at 260.3 nm.
# Abcg2 (BCRP) [1] = target: T2, Abcg2 (BCRP) (Mus musculus, UniProt Q7TMS5); experiment: as above; format: in vitro ADME; details: mouse; danofloxacin 10 µM, positive control, 4 h, MDCK-II mABCG2; read-out: Transport ratio (BA/AB)
# T2 sequence (Q7TMS5 1-657): T1 sequence (Q7TMS5 1-657)
# Experimental: as §1, §2, §3, §4, §5, §6, §7
# ABCG2 (BCRP) [2] = target: T3, ABCG2 (BCRP) (Homo sapiens, UniProt Q9UNQ0); experiment: Transepithelial transport assay in MDCK-II cells transduced with human ABCG2; format: in vitro ADME; details: human; danofloxacin 10 µM, positive control, 4 h, MDCK-II hABCG2; read-out: Transport ratio (BA/AB)
# T3 sequence (Q9UNQ0 1-655): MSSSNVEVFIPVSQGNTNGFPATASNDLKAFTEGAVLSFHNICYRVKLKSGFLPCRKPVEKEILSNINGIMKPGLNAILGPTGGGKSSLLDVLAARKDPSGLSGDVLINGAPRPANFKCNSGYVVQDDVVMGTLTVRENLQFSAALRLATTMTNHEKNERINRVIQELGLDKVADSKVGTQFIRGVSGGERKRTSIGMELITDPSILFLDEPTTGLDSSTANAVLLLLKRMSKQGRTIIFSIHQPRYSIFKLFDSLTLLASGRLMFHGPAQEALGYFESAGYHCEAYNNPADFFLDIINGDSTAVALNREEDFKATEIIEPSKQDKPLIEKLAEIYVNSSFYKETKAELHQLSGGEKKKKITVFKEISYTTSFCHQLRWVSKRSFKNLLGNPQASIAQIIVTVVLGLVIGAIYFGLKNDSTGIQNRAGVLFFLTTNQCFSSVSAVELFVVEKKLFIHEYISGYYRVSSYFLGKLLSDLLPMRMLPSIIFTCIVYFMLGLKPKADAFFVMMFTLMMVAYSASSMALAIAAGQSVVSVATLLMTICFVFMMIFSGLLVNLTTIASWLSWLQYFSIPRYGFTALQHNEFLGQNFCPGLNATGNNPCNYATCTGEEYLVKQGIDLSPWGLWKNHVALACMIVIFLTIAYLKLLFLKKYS
# Experimental: as §1, §2, §3, §4, §5, §6
# as §7, with “The mobile phase used for in vitro samples was trifluoroacetic acid 0.04%:methanol (40:60), whereas for in vivo samples, it was ammonium acetate 25 mM (pH 5):acetonitrile (85:15).” left out
# human ABCG2 = target: T4, human ABCG2 (Homo sapiens, UniProt Q9UNQ0); experiment: as above; format: in vitro ADME
# T4 sequence (Q9UNQ0 1-655): T3 sequence (Q9UNQ0 1-655)
# Experimental: as §1, §2, §3, §4, §5, §6
# as §7, with “The mobile phase used for in vitro samples was trifluoroacetic acid 0.04%:methanol (40:60), whereas for in vivo samples, it was ammonium acetate 25 mM (pH 5):acetonitrile (85:15).” left out
# parental MDCK-II cells = experiment: Transepithelial transport assay in parental MDCK-II cells; format: in vitro ADME, canine; details: danofloxacin 10 µM, positive control, 4 h
# Experimental: as §1, §2, §3, §4
# (§8) Lumichrome appearance in the opposite compartment is presented as the fraction of total compound added at the beginning of the experiment and expressed as percentage. The relative efflux transport ratio was calculated as the basal to apical directed transport percentage divided by the apical to basal directed transport percentage at 4 h.
# [3] = as above; format: in vitro ADME, canine; details: dog, danofloxacin 10 µM, positive control, read-out: Transport ratio (BA/AB)
# Experimental: as §1, §2, §3, §4, §8
# MCF-7 = details: breast cancer cell line MCF-7; cited from earlier work
# [4] = Plasma levels in wild-type and Abcg2-/- male mice after intraperitoneal administration; details: for concentration at 45 min / concentration at 60 min: Plasma concentration
# Excerpt: (§9) Animals were handled according to institutional and ARRIVE guidelines complying with European legislation (2010/63/EU). Experimental procedures were approved by the Animal Care and Use Committee of the University of León and the Junta de Castilla y León (ULE_010_2021). Abcg2^-/- and wild-type mice were used, all of >99% FVB/N genetic background, generated and kindly supplied by A. H. Schinkel (The Netherlands Cancer Institute).
# (§10) All animals, which were aged from 9 to 14 weeks and weighed 30 g, were kept in a temperature-controlled environment with a cycle of 12 h of light and 12 h of darkness and received a standard diet and water ad libitum.
# (§11) Blood samples were collected at different time points (5, 10, 20, 30, 45, 60, 90 and 120 min) by cardiac puncture under anesthesia with isoflurane. Organs were harvested at the 60 min time point. All animals were euthanized by cervical dislocation at the end of the experimental procedure. Heparinized blood samples were centrifuged immediately at 3000× g for 15 min. Plasma and organs were stored at −20 °C until HPLC analysis. Three to ten animals were used for each time point.
# as §6, §7
# in vivo = details: female, FVB/N, mouse, ip, 10 mg/kg, 10 mg/kg intraperitoneal
# Excerpt: as §9, §10
# Pups of approximately 10 days old were separated from their mothers four hours before the onset of the experiment. […] Milk secretion was stimulated by oxytocin (200 μL of a 1 UI/mL solution), subcutaneously injected to lactating mice 10 min before sample collection. […] Animals were euthanized by cervical dislocation at the end of the experiment. Four to five animals were used for each group.
# Heparinized blood samples were centrifuged immediately at 3000× g for 15 min to obtain plasma. Milk and plasma were also stored at −20 °C until HPLC analysis.
# as §6, §7
# Colo-205 = details: colorectal cancer cell line Colo-205; cited from earlier work
# [5] = test system: non-small-cell lung cancer (NSCLC) cell lines; details: p53-dependent mechanisms; cited from earlier work
# HepG2 = details: liver cancer cell line HepG2; cited from earlier work
# [6] = Tissue distribution in wild-type and Abcg2-/- male mice; details: 10 mg/kg intraperitoneal; for concentration at 60 min: male, FVB/N, mouse, in vivo, ip, 10 mg/kg
# Excerpt: as §9, §10, §11, §6, §7
# [7] = danofloxacin 10 µM, positive control, 4 h, MDCK-II mABCG2
# [8] = danofloxacin 10 µM, positive control, 4 h, MDCK-II hABCG2
# [9] = male, FVB/N, mouse, in vivo, ip, 10 mg/kg, Abcg2-/- male mice, 10 mg/kg intraperitoneal
# [10] = male, FVB/N, mouse, in vivo, ip, 10 mg/kg, wild-type male mice, 10 mg/kg intraperitoneal
compound,measurement,setting,value
COc1ccc2c3c([nH]c2c1)[C@H](CC(C)C)N1C(=O)[C@H](CCC(=O)OC(C)(C)C)NC(=O)[C@@H]1C3 [Ko143],Inhibition of ABCG2-mediated transport of lumichrome,"murine Abcg2; Ko143 1 µM, lumichrome 10 µM, murine Abcg2 subclone",completely inhibited
CN1C[C@@H]2C[C@H]1CN2c1cc2c(cc1F)c(=O)c(C(=O)O)cn2C1CC1 [danofloxacin],AB transport (%),murine Abcg2; [7],5.30 ± 1.97%
same,BA transport (%),murine Abcg2; [7],45.77 ± 6.49%
same,"efflux ratio at 4 h, 10 µM",Abcg2 (BCRP) [1],9.24 ± 2.59
same,"efflux ratio at 4 h, 10 µM",ABCG2 (BCRP) [2],2.04 ± 0.57
same,AB transport (%),human ABCG2; [8],17.22 ± 2.98%
same,BA transport (%),human ABCG2; [8],33.94 ± 4.07%
same,AB transport (%),parental MDCK-II cells,22.84 ± 2.99%
same,BA transport (%),parental MDCK-II cells,21.82 ± 1.79%
same,"efflux ratio at 4 h, 10 µM",[3],0.96 ± 0.08
Cc1cc2nc3[nH]c(=O)[nH]c(=O)c3nc2cc1C [lumichrome],In vitro transport by the transporter (substrate),"murine Abcg2; lumichrome 10 µM, murine variant",efficiently transported
same,Concentration showing significant cytotoxic activity,MCF-7,higher than 40 µM
same,Plasma AUC 20–120 min,"[4]; Abcg2-/- male mice, 10 mg/kg intraperitoneal",1.29 ± 0.11 µg·h/mL
same,AUC,"[4]; male, FVB/N, mouse, in vivo, ip, 10 mg/kg",0.72 ± 0.05 µg·h/mL
same,concentration at 45 min,[4]; [9],1.02 ± 0.26 µg/mL
same,concentration at 60 min,[4]; [9],0.85 ± 0.5 µg/mL
same,concentration at 45 min,[4]; [10],0.39 ± 0.24 µg/mL
same,concentration at 60 min,[4]; [10],0.4 ± 0.13 µg/mL
same,concentration at 30 min,"in vivo; Milk concentration, Abcg2-/- lactating female mice",0.43 ± 0.18 µg/mL
same,concentration at 30 min,"in vivo; Milk concentration, wild-type lactating female mice",1.75 ± 0.73 µg/mL
same,concentration at 30 min,"in vivo; Plasma concentration, Abcg2-/- lactating female mice",0.28 ± 0.1 µg/mL
same,concentration at 30 min,"in vivo; Plasma concentration, wild-type lactating female mice",0.31 ± 0.06 µg/mL
same,Concentration showing significant cytotoxic activity,Colo-205,higher than 40 µM
same,Concentration suppressing growth and inducing apoptosis,[5],above 25 µM
same,Concentration showing significant cytotoxic activity,HepG2,higher than 40 µM
same,"Tissue distribution (liver, kidney, small intestine, small intestine content, spleen, brain, testis)","[6]; male mice, 60 min",widely distributed in all organs analyzed
same,concentration at 60 min,"[6]; Concentration in liver, Abcg2-/- male mice",0.34 ± 0.12 µg/mL
same,concentration at 60 min,"[6]; Concentration in liver, wild-type male mice",0.15 ± 0.07 µg/mL
same,concentration at 60 min,"[6]; Concentration in small intestine content, Abcg2-/- male mice",0.31 ± 0.11 µg/mL
same,concentration at 60 min,"[6]; Concentration in small intestine content, wild-type male mice",0.85 ± 0.35 µg/mL
same,concentration at 60 min,"[6]; Concentration in testis, Abcg2-/- male mice",0.18 ± 0.05 µg/mL
same,concentration at 60 min,"[6]; Concentration in testis, wild-type male mice",0.08 ± 0.06 µg/mL
same,In vitro transport by the transporter (substrate),"human ABCG2; lumichrome 10 µM, human variant",efficiently transported
